Laboratory results as given in ChEMBL document CHEMBL1201862, “PubChem BioAssay data set” (2004).
Calls of active or inactive are those of the source.

What was measured:
[1] = molecular target: Induced myeloid leukemia cell differentiation protein Mcl-1 (Homo sapiens, UniProt Q07820); assay type: functional
[2] = P. falciparum 3D7-ScDHODH growth inhibitors, dose response, SYBR Green, dry powder samples (AID 1159570); assay type: functional, cell-based;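 further: parasite growth measured after 72 hours of compound exposure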
[3] = HepG2 cell cytotoxicity, dose response, cytotoxicity control, plate reader, dry powder samples (AID 1159569); assay type: functional, cell-based;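 further: inhibitor potency with signal falling toward the positive control level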
[4] = P. falciparum Dd2 growth inhibitors, dose response, SYBR Green, cherry-picked samples (AID 1159567); assay type: functional, cell-based
[5] = P. falciparum Dd2 growth inhibitors, dose response, SYBR Green, dry powder samples (AID 1159566); assay type: functional, cell-based;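 further: potency for growth inhibition with lower SYBR green DNA signal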
[6] = P. falciparum ATP4 D1247Y mutant growth inhibitors, dose response, NITD609-resistant line, SYBR Green, dry powder (AID 1159571); assay type: functional, cell-based;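 further: parasites synchronized at ring stage by sorbitol before testing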
[7] = cytotoxicity in HEK-293T cells, dose response, cytotoxicity control for TCR NF-kB inhibitor project, luminescence, T-cell screen hits (AID 489026); assay type: functional, cell-based;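 further: cells exposed to compound about 14 hours before the viability readout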
[8] = off-target signal loss in HeLa-CEM21 co-culture – HeLa F-luc CTL cells, cherry-picked, counter-screen for HIV-1 Env fusion inhibitor project, dose response (AID 652040); assay type: functional, cell-based;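 further: potency for signal decrease marking cytotoxic or nonspecific inhibition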
[9] = molecular target: T1, Leucine aminopeptidase (Plasmodium falciparum 3D7, UniProt Q8IL11); assay: P. falciparum M17LAP inhibitors, primary screen, biochemical, fluorogenic H-Leu-NHMec substrate, 1536-well (AID 1619); assay type: functional
T1 sequence (Q8IL11 whole entry): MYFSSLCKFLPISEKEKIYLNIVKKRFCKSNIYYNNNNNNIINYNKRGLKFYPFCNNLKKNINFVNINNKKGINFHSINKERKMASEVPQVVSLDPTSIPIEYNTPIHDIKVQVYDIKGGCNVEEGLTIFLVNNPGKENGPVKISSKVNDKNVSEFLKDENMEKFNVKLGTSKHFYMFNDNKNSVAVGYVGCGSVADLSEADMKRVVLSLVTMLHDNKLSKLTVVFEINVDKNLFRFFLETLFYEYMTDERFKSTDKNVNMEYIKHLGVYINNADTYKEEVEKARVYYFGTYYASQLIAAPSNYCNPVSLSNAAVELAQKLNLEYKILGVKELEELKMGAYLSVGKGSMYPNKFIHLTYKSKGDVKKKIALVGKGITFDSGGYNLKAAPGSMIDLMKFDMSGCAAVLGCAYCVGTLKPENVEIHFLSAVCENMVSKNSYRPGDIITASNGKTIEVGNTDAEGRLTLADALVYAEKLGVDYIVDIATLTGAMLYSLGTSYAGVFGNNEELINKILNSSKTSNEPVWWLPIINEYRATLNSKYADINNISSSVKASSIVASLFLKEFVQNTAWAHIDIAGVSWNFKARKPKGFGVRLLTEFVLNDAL

[10] = molecular target: Large T antigen (Simian virus 40, UniProt P03070); assay type: functional, Betapolyomavirus macacae;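 further: Confirmatory-stage PubChem screen for compounds that inhibit SV40 T antigen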
[11] = A Cell Based Secondary Assay To Explore Cytotoxicity of Compounds that Sensitize Mycobacterium Tuberculosis to Beta-Lactam Antibiotics.; assay type: functional
[12] = molecular target: E3 ubiquitin-protein ligase Mdm2 (Homo sapiens, UniProt Q00987); assay: enhancers of MDM2-luciferase reporter signal, concentration-effect titration, project on inhibitors of MDM2 ubiquitin ligase, cellular assay, luminescent readout, 384-well plate format (AID 1394); assay type: functional;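 further: MDM2 E3 inhibitors raise luminescence so EC50 is for signal enhancement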
[13] = molecular target: Nuclear receptor subfamily 5 group A member 2 (Homo sapiens, UniProt O00482); assay type: functional, cell-based;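 further: HEK293T cells transfected with LRH-1 and a StAR promoter luciferase reporter; potency for inhibitors that lower LRH-1 driven reporter light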
[14] = molecular target: Steroidogenic factor 1 (Homo sapiens, UniProt Q13285); assay: Counterscreen for inverse agonists of the liver receptor homolog-1 (LRH-1; NR5A2): Luminescence-based cell-based high throughput dose response assay to identify inverse agonists of the Steroidogenic Factor 1 Nuclear Receptor (SF1; NR5A1).; assay type: functional
[15] = StAR promoter reporter inhibition counter-screen, dose response, counter-screen for LRH-1 inverse agonist project, cell-based, luminescence, luciferase reporter (AID 651969); assay type: functional
[16] = NIH-3T3 fibroblast cytotoxicity, dose response, cytotoxicity control, cell-based, fluorescence, Alamar Blue, secondary assay (AID 2327); assay type: functional;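 further: NIH-3T3 mouse fibroblasts cultured with fluconazole at 8 µg/mL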
[17] = C. albicans growth with fluconazole, confirmation, fluorescence, retest (AID 2467); assay type: functional, cell-based
[18] = molecular target: Voltage-dependent T-type calcium channel subunit alpha-1H (Homo sapiens, UniProt O95180); assay type: functional;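 further: channel activity triggered by adding a high calcium stimulation buffer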
[19] = inhibitors of HIV Env-driven cell fusion, dose response, cherry-pick (AID 652057); assay type: functional, cell-based
[20] = ZM109 Env clade C HIV-1 fusion inhibitors, dose response, HeLa effector, CEM target cells, luciferase, cherry-pick (AID 652058); assay type: functional, cell-based
[21] = inhibitors of clade B AD8 Env fusion, dose response, cell-based, cherry-pick (AID 652062); assay type: functional;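 further: luciferase signal from cell-cell fusion driven by HIV-1 clade B AD8 Env; potency is for inhibitors of fusion seen as a drop in luminescence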
[22] = molecular target: Nonstructural protein 1 (Influenza A virus, UniProt Q194T2); assay type: functional, Influenza A virus (A/California/07/2009(H1N1))
[23] = molecular target: Beta-lactamase (Salmonella choleraesuis (strain SC-B67), UniProt Q5J463); assay: Epi-absorbance-based counterscreen for selective VIM-2 inhibitors: dose response biochemical high throughput screening assay to identify inhibitors of TEM-1 serine-beta-lactamase.
[24] = molecular target: T2, Beta-lactamase (Pseudomonas aeruginosa, UniProt Q79MP6); assay: IMP-1 metallo-beta-lactamase inhibitors, dose response, selectivity assay for VIM-2 inhibitor project, biochemical, epi-absorbance (AID 1920)
[25] = molecular target: T2, Beta-lactamase; assay: […] counterscreen for selective VIM-2 inhibitors: dose response biochemical high throughput screening assay to identify inhibitors of IMP-1 metallo-beta-lactamase.
[26] = molecular target: T3, Carboxy-terminal domain RNA polymerase II polypeptide A small phosphatase 1 (Homo sapiens, UniProt Q9GZU7); assay: inhibitors of CTDSP1, concentration-response testing, biochemical assay, absorbance-based, actives from ultra-high-throughput screening (AID 540297); assay type: functional
T3 sequence (Q9GZU7 whole entry): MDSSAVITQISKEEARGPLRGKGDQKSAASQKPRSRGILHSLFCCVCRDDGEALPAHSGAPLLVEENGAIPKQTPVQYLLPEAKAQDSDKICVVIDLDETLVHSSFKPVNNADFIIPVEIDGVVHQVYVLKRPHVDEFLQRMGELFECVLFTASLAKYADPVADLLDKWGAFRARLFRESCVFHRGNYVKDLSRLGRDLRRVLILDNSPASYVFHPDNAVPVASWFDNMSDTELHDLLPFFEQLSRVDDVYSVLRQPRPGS

[27] = intracellular Trypanosoma cruzi inhibitors in host cells – cell-based, plate reader, cherry-pick samples, set 3, dose response (AID 651818); assay type: functional;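 further: compounds incubated with infected cells for about four days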
[28] = test system: BJ; assay: cytotoxicity toward BJ-TERT fibroblasts, dose response, cell-based, RAS-independent, luminescence (AID 1933); assay type: functional; settings: Homo sapiens
[29] = test system: BJ; assay: cells; assay type: functional, cell-based; settings: Homo sapiens
[30] = test system: BJ; assay: cytotoxicity toward BJ-TERT-LT-ST fibroblasts, dose response, cell-based, RAS-independent, luminescence (AID 1935); assay type: functional; settings: Homo sapiens;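 further: BJ fibroblasts immortalized with TERT plus LT and ST oncogenes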
[31] = cytotoxicity toward DRD oncogenic fibroblasts, dose response, cell-based, non-viral oncogenic, luminescence (AID 1934); assay type: functional; settings: Homo sapiens

Sequence of Beta-lactamase (Salmonella choleraesuis (strain SC-B67), UniProt Q5J463) (Q5J463 whole entry): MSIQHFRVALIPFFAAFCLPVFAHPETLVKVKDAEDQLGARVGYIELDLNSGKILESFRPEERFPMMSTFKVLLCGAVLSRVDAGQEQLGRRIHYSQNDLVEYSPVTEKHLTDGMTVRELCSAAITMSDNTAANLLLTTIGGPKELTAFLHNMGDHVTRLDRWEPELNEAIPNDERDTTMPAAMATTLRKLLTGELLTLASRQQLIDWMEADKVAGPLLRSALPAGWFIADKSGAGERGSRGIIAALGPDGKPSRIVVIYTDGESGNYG
T2 sequence (Q79MP6 whole entry): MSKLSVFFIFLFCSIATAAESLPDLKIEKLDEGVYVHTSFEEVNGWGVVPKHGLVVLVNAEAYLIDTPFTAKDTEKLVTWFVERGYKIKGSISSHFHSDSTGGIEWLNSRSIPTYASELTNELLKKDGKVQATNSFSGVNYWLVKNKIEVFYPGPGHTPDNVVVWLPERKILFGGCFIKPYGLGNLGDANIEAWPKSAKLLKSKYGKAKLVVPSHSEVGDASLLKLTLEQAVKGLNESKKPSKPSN
Sequence of Nuclear receptor subfamily 5 group A member 2 (O00482 whole entry): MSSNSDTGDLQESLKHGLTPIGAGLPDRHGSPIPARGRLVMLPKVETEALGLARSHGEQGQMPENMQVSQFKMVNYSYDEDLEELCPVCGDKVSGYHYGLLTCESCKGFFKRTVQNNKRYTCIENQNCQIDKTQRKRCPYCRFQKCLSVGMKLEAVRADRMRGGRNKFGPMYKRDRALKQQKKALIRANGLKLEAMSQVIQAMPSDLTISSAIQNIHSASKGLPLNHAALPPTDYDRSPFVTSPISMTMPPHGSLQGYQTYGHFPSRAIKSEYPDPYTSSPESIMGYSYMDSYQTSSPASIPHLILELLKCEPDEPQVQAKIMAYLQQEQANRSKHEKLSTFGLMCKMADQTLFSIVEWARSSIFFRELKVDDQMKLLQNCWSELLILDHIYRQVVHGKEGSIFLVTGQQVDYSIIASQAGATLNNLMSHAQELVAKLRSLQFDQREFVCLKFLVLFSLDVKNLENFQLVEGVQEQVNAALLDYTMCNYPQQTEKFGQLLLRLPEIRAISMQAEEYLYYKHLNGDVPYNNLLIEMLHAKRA
Sequence of Induced myeloid leukemia cell differentiation protein Mcl-1 (Q07820 whole entry): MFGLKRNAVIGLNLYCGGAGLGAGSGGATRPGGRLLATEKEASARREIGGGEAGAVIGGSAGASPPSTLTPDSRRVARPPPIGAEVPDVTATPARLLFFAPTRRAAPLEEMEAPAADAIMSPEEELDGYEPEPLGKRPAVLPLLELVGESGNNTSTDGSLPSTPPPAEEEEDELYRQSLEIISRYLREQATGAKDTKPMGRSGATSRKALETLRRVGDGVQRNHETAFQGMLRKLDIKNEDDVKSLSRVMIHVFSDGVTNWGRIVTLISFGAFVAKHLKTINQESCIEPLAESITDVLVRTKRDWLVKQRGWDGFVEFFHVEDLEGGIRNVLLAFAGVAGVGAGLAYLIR
Sequence of Voltage-dependent T-type calcium channel subunit alpha-1H (O95180 whole entry, the tested form may be a part): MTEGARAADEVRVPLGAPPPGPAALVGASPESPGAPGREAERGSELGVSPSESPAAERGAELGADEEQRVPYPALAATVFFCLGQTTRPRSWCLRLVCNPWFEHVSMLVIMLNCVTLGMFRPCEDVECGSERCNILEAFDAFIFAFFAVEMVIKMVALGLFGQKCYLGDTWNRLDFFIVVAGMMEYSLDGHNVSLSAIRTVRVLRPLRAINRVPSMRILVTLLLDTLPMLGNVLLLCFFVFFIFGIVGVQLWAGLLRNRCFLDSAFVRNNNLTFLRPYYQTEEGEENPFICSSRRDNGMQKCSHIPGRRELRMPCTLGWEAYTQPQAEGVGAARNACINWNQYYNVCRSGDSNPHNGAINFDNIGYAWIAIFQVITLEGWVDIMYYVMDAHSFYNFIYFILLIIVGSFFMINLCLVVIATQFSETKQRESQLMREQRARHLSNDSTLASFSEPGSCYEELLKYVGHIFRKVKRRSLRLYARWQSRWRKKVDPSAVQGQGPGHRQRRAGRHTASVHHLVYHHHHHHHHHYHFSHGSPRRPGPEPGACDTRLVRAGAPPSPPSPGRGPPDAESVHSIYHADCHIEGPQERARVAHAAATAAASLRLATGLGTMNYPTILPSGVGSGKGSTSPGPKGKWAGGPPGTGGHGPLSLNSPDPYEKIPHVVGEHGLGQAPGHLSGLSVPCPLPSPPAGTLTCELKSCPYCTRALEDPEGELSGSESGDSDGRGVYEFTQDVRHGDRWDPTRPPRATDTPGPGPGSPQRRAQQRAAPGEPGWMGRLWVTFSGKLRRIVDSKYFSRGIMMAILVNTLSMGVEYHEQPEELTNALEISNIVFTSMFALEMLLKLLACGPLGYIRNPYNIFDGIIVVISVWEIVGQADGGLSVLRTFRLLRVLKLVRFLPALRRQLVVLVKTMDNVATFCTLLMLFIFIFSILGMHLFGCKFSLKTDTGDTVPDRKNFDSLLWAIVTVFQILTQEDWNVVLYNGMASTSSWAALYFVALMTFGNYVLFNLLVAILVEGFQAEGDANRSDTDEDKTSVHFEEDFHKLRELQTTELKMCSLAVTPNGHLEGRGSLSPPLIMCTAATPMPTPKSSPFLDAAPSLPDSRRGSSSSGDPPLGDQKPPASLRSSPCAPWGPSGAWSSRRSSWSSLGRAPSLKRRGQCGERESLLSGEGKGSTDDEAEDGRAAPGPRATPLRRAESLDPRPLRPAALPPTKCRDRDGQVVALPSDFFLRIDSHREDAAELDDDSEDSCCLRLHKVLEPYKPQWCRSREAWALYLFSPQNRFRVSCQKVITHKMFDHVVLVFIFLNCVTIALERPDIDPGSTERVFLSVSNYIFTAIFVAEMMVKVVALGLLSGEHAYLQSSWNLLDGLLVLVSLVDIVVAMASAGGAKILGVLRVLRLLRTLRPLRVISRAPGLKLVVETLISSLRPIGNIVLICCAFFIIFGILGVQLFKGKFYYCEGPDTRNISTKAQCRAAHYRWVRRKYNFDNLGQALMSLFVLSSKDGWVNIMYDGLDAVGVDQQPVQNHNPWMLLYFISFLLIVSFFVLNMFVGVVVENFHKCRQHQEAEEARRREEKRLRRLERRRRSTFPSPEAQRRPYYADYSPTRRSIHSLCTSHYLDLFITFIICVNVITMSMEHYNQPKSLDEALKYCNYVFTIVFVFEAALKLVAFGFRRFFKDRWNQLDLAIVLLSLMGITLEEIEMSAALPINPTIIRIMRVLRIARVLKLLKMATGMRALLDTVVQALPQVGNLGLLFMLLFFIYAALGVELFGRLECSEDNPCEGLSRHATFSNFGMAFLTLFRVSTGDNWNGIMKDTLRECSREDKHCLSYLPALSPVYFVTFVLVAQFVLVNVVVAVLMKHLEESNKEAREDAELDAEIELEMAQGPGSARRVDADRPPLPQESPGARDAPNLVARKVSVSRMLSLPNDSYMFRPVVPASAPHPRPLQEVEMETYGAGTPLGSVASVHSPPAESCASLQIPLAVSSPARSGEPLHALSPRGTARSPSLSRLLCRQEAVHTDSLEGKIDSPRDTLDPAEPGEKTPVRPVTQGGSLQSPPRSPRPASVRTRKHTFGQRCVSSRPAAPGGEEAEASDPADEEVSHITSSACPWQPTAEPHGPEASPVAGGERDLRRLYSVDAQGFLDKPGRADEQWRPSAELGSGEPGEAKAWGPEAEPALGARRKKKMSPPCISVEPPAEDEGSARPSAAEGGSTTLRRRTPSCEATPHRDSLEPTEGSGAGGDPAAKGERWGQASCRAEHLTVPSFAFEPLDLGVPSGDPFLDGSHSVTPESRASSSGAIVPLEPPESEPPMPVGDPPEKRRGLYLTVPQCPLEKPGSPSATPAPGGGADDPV
Sequence of Steroidogenic factor 1 (Q13285 whole entry): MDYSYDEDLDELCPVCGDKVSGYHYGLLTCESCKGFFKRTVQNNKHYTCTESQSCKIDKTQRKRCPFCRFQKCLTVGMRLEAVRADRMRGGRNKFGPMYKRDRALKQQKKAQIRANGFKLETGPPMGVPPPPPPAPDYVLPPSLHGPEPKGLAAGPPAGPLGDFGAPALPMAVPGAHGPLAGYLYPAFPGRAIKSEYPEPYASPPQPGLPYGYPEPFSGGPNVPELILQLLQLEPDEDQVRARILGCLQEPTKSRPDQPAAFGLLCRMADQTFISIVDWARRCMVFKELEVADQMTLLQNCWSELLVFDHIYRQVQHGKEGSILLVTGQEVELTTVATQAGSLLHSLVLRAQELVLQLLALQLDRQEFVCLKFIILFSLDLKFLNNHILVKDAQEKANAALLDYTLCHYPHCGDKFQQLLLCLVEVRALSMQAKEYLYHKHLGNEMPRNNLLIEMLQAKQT
Sequence of E3 ubiquitin-protein ligase Mdm2 (Q00987 whole entry): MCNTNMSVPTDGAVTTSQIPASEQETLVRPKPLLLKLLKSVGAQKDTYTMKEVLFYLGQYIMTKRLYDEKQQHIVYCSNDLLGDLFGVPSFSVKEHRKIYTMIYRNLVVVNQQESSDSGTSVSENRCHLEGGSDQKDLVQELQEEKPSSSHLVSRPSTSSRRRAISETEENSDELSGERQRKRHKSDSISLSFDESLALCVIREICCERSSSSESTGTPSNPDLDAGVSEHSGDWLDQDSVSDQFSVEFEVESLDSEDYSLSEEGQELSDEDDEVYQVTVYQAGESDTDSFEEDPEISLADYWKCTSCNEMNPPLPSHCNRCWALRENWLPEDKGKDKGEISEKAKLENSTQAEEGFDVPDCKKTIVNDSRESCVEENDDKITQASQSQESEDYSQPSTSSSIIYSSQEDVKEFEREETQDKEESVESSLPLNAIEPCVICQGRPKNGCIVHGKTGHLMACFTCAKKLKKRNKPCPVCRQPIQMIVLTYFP
Sequence of Nonstructural protein 1 (Q194T2 whole entry): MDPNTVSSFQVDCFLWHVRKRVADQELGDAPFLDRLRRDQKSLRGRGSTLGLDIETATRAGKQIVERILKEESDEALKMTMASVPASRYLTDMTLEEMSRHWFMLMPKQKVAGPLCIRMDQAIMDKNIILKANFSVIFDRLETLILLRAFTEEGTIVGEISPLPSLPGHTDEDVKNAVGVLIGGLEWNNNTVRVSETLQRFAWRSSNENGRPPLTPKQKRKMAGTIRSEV

CCC1(C(=O)OC)CCc2c(cc(OC)c3ccccc23)C1=O (centres undefined)
IC50 [1]: > 54 µM (not active)

COc1ccccc1-c1cccc(-c2nc(C(=O)Nc3nccs3)cc3c2[C@H](CCO)N(C(C)=O)C3)c1
AC50 [2]: 3.93 µM (active) | AC50 [3]: 66.8 µM (active) | AC50 [4]: 2.15 µM (active) | AC50 [5]: 2.08 µM (active) | AC50 [6]: 1.96 µM (active)

COc1ccc(NC(=O)C(=O)NCC2CCCN2S(=O)(=O)c2cccs2)cc1 (centres undefined)
IC50 [7]: > 80 µM (inactive) | AC50 [8]: > 70 µM (inactive)

Cc1cccc(NC(=O)CSc2nnc(NC(=O)CN3CCOCC3)s2)c1
IC50 [9]: 14 µM (active)

CCOC(=O)c1c(NC(C)=O)sc2c(O)c(Br)cc(Br)c12
IC50 [10]: 56.7 µM (active) | IC50 [1]: 4.76 µM (active)

Cc1ccccc1NC(=O)CSc1nc(O)cc(C)c1C#N
IC50 [9]: 10.9 µM (active)

C/C(=N\NC(=O)c1ccccc1O)c1ccc(Br)s1
CC50 [11]: 24.4 µM (active)

Cc1cccc(Nc2nnc(SCC3CCCCO3)s2)c1C (centres undefined)
EC50 [12]: 12.4 µM (not active)

CC(=O)Nc1ccc(NC(=O)CSc2nnc(NC(=O)C3CC3)s2)cc1
IC50 [13]: 9.26 µM (active) | IC50 [14]: 8.29 µM (active) | IC50 [15]: 35.9 µM (inactive)

CC(=O)Nc1ccc(NC(=O)CSc2ccc(-c3ccc(-n4ccnc4)cc3)nn2)cc1
IC50 [13]: 35.9 µM (inactive) | IC50 [14]: 35.9 µM (inactive) | IC50 [15]: 35.9 µM (inactive)

CCCCCn1c(=O)c(C(=O)NCc2ccncc2)c(O)c2ccccc21
EC50 [16]: > 150 µM (inactive) | CC50 [11]: 14.7 µM (active) | EC50 [17]: > 38 µM (not active)

Cc1ccc(Cl)cc1N1CCN(Cc2nnnn2Cc2ccco2)CC1
EC50 [18]: 0.633 µM (active)

CCOc1c(C)cnc2c1c(=O)n(Cc1ccc(Cl)cc1)c(=O)n2C
AC50 [19]: 7.77 µM (active) | AC50 [20]: 12.1 µM (active) | AC50 [8]: 12.5 µM (active) | AC50 [21]: 8.07 µM (active)

Cc1cc(C)nc(N/N=C/c2c(CO)cnc(C)c2O)n1
IC50 [22]: 20.2 µM (active)

Cn1c(-c2sccc2OCc2ccc(Cl)cc2Cl)n[nH]c1=S
IC50 [23]: > 59.6 µM (inactive) | IC50 [24]: > 59.6 µM (inactive) | IC50 [25]: > 59.6 µM (inactive)

COc1ccc(C2=NS(=O)(=O)N(C)C(C(=O)Nc3ccc4c(c3)OCO4)=C2)cc1OC
IC50 [22]: > 100 µM (active)

O=C(c1cccc(F)c1)N1CC(=O)N2[C@H](CO)[C@H](c3ccc(-c4cccnc4)cc3)[C@H]2C1
AC50 [2]: 0.198 µM (active) | AC50 [3]: > 100 µM (inactive) | AC50 [4]: 0.326 µM (active) | AC50 [5]: 0.133 µM (active) | AC50 [6]: 0.186 µM (active)

O=c1/c(=C/c2ccc(O)c([N+](=O)[O-])c2)sc2nc3ccccc3n12
IC50 [1]: 3.94 µM (active) | IC50 [26]: 1.83 µM (active)

C[C@@H]1CN([C@@H](C)CO)C(=O)Cc2cc(NC(=O)Nc3ccc(C(F)(F)F)cc3)ccc2O[C@@H]1CN(C)Cc1ccc2c(c1)OCO2
AC50 [27]: 2.01 µM (active)

C[C@H](CO)N1C[C@H](C)[C@H](CN(C)Cc2ccc(C(F)(F)F)cc2)Oc2ccc(NC(=O)Nc3ccc(F)cc3)cc2CC1=O
AC50 [27]: 2.19 µM (active)

Cc1cccc(C2c3[nH]c4ccccc4c3CCN2C(=O)c2cc(CC(C)C)nc(=O)[nH]2)n1 (centres undefined)
IC50 [23]: > 59.6 µM (inactive) | IC50 [24]: > 59.6 µM (inactive) | IC50 [25]: > 59.6 µM (inactive)

O=C(Nc1ccc2c(c1)OCO2)C1CCN(Cc2cnn(-c3ccccc3)c2-n2cccc2)CC1
EC50 [18]: 5.88 µM (active)

Cc1oc(-c2ccccc2)nc1Cn1cccc1C1=NC(c2ccccc2)CO1 (centres undefined)
EC50 [18]: 7.51 µM (active)

COc1ccc(NC(=O)CSc2nc(N)c(-c3ccccc3)c(O)n2)cc1
IC50 [13]: 9.88 µM (active) | IC50 [14]: 2.36 µM (active) | IC50 [15]: 35.9 µM (inactive)

O=C(CCN1C(=O)/C(=C/c2ccccc2F)SC1=S)NCCCn1ccnc1
IC50 [23]: > 59.6 µM (inactive) | IC50 [24]: > 59.6 µM (inactive) | IC50 [25]: > 19.9 µM (inactive)

C[C@@H]1CN([C@H](C)CO)C(=O)c2cccc(NC(=O)CCCCCC(=O)Nc3ccccc3N)c2O[C@H]1CN(C)CC1CC1
AC50 [27]: 3.12 µM (active)

O=c1c2ccccc2nc(CN2CCCCCC2)n1-c1ccc(F)cc1
AC50 [19]: 20.9 µM (active) | AC50 [20]: 30.2 µM (active) | AC50 [8]: 10.1 µM (active) | AC50 [21]: 50.6 µM (active)

CCSc1nc2ccccc2n1C(=O)/C=C\c1ccc(OC)c(OC)c1
EC50 [12]: 0.24 µM (active) | EC50 [28]: 4.41 µM (inconclusive) | EC50 [29]: 8.04 µM (active) | EC50 [30]: 5.15 µM (inconclusive) | EC50 [31]: 4.6 µM (inconclusive) | IC50 [7]: > 80 µM (inactive)

O=C(Nc1ccc(C(F)(F)F)cc1)N1[C@@H]2CNC[C@H]1[C@H]2c1ccc(/C=C/c2ccccc2)cc1
AC50 [2]: 1.76 µM (active) | AC50 [3]: 66.2 µM (active) | AC50 [4]: 2.46 µM (active) | AC50 [5]: 1.4 µM (active) | AC50 [6]: 1.52 µM (active)

COC(=O)c1ccc(Cl)c(NC(=O)CSc2nnc[nH]2)c1
IC50 [9]: 35.1 µM (active)

Cc1ccc(C)c(NC(=O)CSc2nc(O)c3c[nH]nc3n2)c1
IC50 [13]: 29 µM (inactive) | IC50 [14]: 6.65 µM (active) | IC50 [15]: 35.9 µM (inactive)

CC1CCN(S(=O)(=O)c2ccc(NN=C(C#N)C#N)cc2)CC1
EC50 [18]: 1.52 µM (active)
